According to article PMC6792352, “Limited Chemical Structural Diversity Found to Modulate Thyroid Hormone Receptor in the Tox21 Chemical Library” (Environmental Health Perspectives, 2019):
Where a name gives a salt, the structure may show the parent alone.

experiment: in vitro; details: rat, gh3-tre-luc cells, AC50 (uM) modified / 1000

| SMILES | CC50 at 24 h |
| --- | --- |
| Cc1nccn1-c1ccc(Sc2cccc(C3(C(N)=O)CCOCC3)c2)cc1 [CJ-013610] | 42.6 µM |
| OC[C@H]1O[C@@H](O[C@H]2[C@H](O)[C@@H](O)C(O)O[C@@H]2CO)[C@H](O)[C@@H](O)[C@H]1O (stereo partly shown) [Lactose] | > 90 µM |
| COC(=O)OC [Dimethyl carbonate] | > 90 µM |
| O=Cc1ccco1 [Furfural] | > 90 µM |
| CC(=O)OC(C)OC(=O)C(C)c1ccc(-c2ccccc2)c(F)c1 (stereo not shown) [Flurbiprofen axetil] | > 50 µM |
| O=C(NC(=O)c1c(F)cccc1F)Nc1ccc(Cl)c(Oc2ncc(C(F)(F)F)cc2Cl)c1 [Fluazuron] | > 50 µM |
| Cc1cnc(C(=O)O)c[n+]1[O-] [Acipimox] | > 50 µM |
| Cc1c(C(N)=O)cc([N+](=O)[O-])cc1[N+](=O)[O-] [Zoalene] | > 90 µM |
| Cc1cccc(C(=O)O)c1[N+](=O)[O-] [3-Methyl-2-nitrobenzoic acid] | > 90 µM |
| CC(C)c1c(CN(C)C(C)Cc2ccccc2)n(C)n(-c2ccccc2)c1=O (stereo not shown) [Famprofazone] | > 20 µM |
| CC(=O)Oc1ccccc1C(N)=O [Acetylsalicylamide] | > 50 µM |
| CCC1=C(C)CN(C(=O)NCCc2ccc(S(=O)(=O)NC(=O)N[C@H]3CC[C@H](C)CC3)cc2)C1=O [Glimepiride] | > 50 µM |
| C[Si]1(C)O[Si](C)(C)O[Si](C)(C)O1 [Hexamethylcyclotrisiloxane] | > 90 µM |
| NC(=O)N(O)[C@@H]1COc2cc(OCc3ccccc3)ccc21 [SB202235] | > 90 µM |
| O=C(O)c1ccc(S(=O)(=O)O)cc1C(=O)O [4-Sulfophthalic acid] | > 90 µM |
| NCCCC[C@H](NC(=O)[C@@H]1CCCN1C(=O)[C@@H]1CSSC[C@H](N)C(=O)N[C@@H](Cc2ccc(O)cc2)C(=O)N[C@@H](Cc2ccccc2)C(=O)N[C@@H](CCC(N)=O)C(=O)N[C@@H](CC(N)=O)C(=O)N1)C(=O)NCC(N)=O [Lypressin] | > 50 µM |
| O=c1[nH]c(=O)c2c[nH]nc2[nH]1 [Oxypurinol] | > 90 µM |
| c1ccc(CSCc2ccccc2)cc1 [Benzyl sulfide] | > 90 µM |
| O=C(O)CCc1nc(-c2ccccc2)c(-c2ccccc2)o1 [Oxaprozin] | > 50 µM |
| CCCCC(CC)CCC(CC(C)C)OS(=O)(=O)O (stereo not shown) [7-Ethyl-2-methyl-4-undecanolsulfate, sodium salt] | > 90 µM |
| CC(C)C(C(=O)OC(C#N)c1cccc(Oc2ccccc2)c1)c1ccc(Cl)cc1 (stereo not shown) [Fenvalerate] | > 90 µM |
| CNC(=O)ON=C(C)SC [Methomyl] | > 90 µM |
| CCOC(=O)CC(=O)C(=O)OCC [Sodium diethyl oxaloacetate] | > 90 µM |

| SMILES | CC50 at 24 h |
| --- | --- |
| C=CCOC(=O)c1ccc(C(=O)OCC=C)c(C(=O)OCC=C)c1 [Triallyl trimellitate] | > 90 µM |
| COCCOC(=O)c1ccccc1C(=O)OCCOC [Di(2-methoxyethyl) phthalate] | > 90 µM |
| CC(C)(C)C(=O)CC(=O)C(C)(C)C [Dipivaloylmethane] | > 100 µM |
| CCCCC(CC)CNC(=N)NC(=N)NCCCCCCNC(=N)NC(=N)NCC(CC)CCCC (stereo not shown) [Alexidine dihydrochloride] | 7.36 µM |
| C[C@H](O)[C@H]1CC[C@H]2[C@@H]3CC[C@@H]4C[C@H](O)CC[C@]4(C)[C@H]3CC[C@]12C [Pregnandiol] | > 50 µM |
| CC(=O)[C@@]1(O)CC[C@H]2[C@@H]3C=C(Cl)C4=CC(=O)[C@@H]5C[C@@H]5[C@]4(C)[C@H]3CC[C@@]21C [Cyproterone] | > 50 µM |
| S=C(SSSSSSC(=S)N1CCCCC1)N1CCCCC1 [Bis(1-piperidinylthioxomethyl)hexasulfide] | 0.0827 µM |
| NC[C@@H]1O[C@H](O[C@H]2[C@@H](O)[C@H](O[C@@H]3[C@@H](O)[C@H](N)C[C@H](N)[C@H]3O[C@H]3O[C@H](CN)[C@@H](O)[C@H](O)[C@H]3N)O[C@@H]2CO)[C@H](N)[C@@H](O)[C@@H]1O [Neomycin sulfate] | > 50 µM |
| O=C(CN1CCNCC1)NC1CCCCC1 [Esaprazole] | > 50 µM |
| c1ccc(-c2ccc(-c3ccccc3)cc2)cc1 [1,1':4',1''-Terphenyl] | > 20 µM |
| CCCCCC(=O)O [Hexanoic acid] | > 90 µM |
| CCN(CC)CCC(=O)N1c2ccccc2Sc2ccc(Cl)cc21 [Chloracizine] | 23.2 µM |
| CCCCNCCCC [N-Butyl-1-butanamine] | > 90 µM |
| Cc1ccccn1 [2-Methylpyridine] | > 90 µM |
| CCCCOCCO [2-Butoxyethanol] | > 90 µM |
| Oc1ccccc1F [2-Fluorophenol] | > 90 µM |
| CC(=O)N(O)CCCCCNC(=O)CCC(=O)N(O)CCCCCNC(=O)CCC(=O)N(O)CCCCCN [Deferoxamine mesylate] | > 20 µM |
| CCOC(=O)c1ccc(N(C)C)cc1 [Parbenate] | > 90 µM |
| CCCCC(=O)OCC(=O)[C@]1(O)Cc2c(O)c3c(c(O)c2[C@@H](O[C@H]2C[C@H](NC(=O)C(F)(F)F)[C@H](O)[C@H](C)O2)C1)C(=O)c1c(OC)cccc1C3=O [Valrubicin] | 8.11 µM |
| COc1cc(C(=O)NCCCCCC(=O)O)cc(OC)c1OC [Capobenic acid] | > 50 µM |
| COc1cc2c(cc1OC)[C@@H](Cc1cc(OC)c(OC)c(OC)c1)[N+](C)(CCCOC(=O)CC/C=C/CCC(=O)OCCC[N+]1(C)CCc3cc(OC)c(OC)cc3[C@H]1Cc1cc(OC)c(OC)c(OC)c1)CC2 (stereo partly shown) [Mivacurium chloride] | > 50 µM |
| CCOCCO [2-Ethoxyethanol] | > 90 µM |
| C=C(C)[C@H]1CC=C(C)C(=O)C1 [d-Carvone] | > 90 µM |

| SMILES | CC50 at 24 h |
| --- | --- |
| O=C(O)CC(=O)C(=O)O [2-Oxobutanedioic acid] | > 90 µM |
| CC[N+](CC)(CC)CCC(O)(c1ccccc1)C1CCCCC1 (stereo not shown) [Tridihexethyl chloride] | > 20 µM |
| Cc1ccc(O)c(-n2nc3ccccc3n2)c1 [2-(2H-Benzotriazol-2-yl)-4-methylphenol] | > 90 µM |
| CC(=NO)C(C)=NO [Dimethylglyoxime] | > 90 µM |
| CC(O)CN(C)C (stereo not shown) [Dimepranol] | > 50 µM |
| Clc1ccc(COC(Cn2ccnc2)c2ccc(Cl)cc2Cl)c(Cl)c1 (stereo not shown) [Miconazole] | 15 µM |
| CCN(CCO)CCn1c(Cc2ccccc2)nc2c1c(=O)n(C)c(=O)n2C [Bamifylline Hydrochloride] | > 50 µM |
| CN1C(=O)CN=C(c2ccccc2)c2cc([N+](=O)[O-])ccc21 [Nimetazepam] | > 50 µM |
| OCCCNc1ccccc1 [3-Anilinopropan-1-ol] | > 50 µM |
| Cc1ccc(Nc2nccc(N(C)c3ccc4c(C)n(C)nc4c3)n2)cc1S(N)(=O)=O [Pazopanib] | > 50 µM |
| CCO[Si](CC(C)C)(OCC)OCC [Triethoxy(2-methylpropyl)silane] | > 90 µM |
| O=C(O)CCCCCC(=O)O [Heptanedioic acid] | > 90 µM |
| CC[C@@H](C(=O)[C@@H](C)[C@@H](O)[C@H](C)CCc1ccc(C)c(O)c1C(=O)O)[C@H]1O[C@](CC)([C@H]2CC[C@](O)(CC)[C@H](C)O2)C[C@@H]1C [Lasalocid sodium] | 2.85 µM |
| NC[C@H]1O[C@H](O[C@H]2[C@H](O)[C@@H](O[C@H]3O[C@H](CO)[C@@H](O)[C@H](N)[C@H]3O)[C@H](N)C[C@@H]2N)[C@H](N)C[C@@H]1O [Tobramycin] | > 20 µM |
| Cc1onc(-c2ccccc2Cl)c1C(=O)N[C@@H]1C(=O)N2[C@@H]1SC(C)(C)[C@@H]2C(=O)O [Cloxacillin sodium] | > 20 µM |
| C[N+]12CCC(CC1)C(OC(=O)C(O)(c1ccccc1)c1ccccc1)C2 (stereo not shown) [Clidinium bromide] | > 20 µM |
| CC(C)(Cl)Cl [2,2-Dichloropropane] | > 90 µM |
| COc1cc(/C=C/C(=O)O[C@H]2CC[C@]34C[C@]35CC[C@]3(C)[C@@H]([C@H](C)CCC=C(C)C)CC[C@@]3(C)[C@@H]5CC[C@H]4C2(C)C)ccc1O [gamma-Oryzanol] | > 50 µM |
| Cc1ccc(Cl)c(Nc2ccccc2C(=O)O)c1Cl [Meclofenamate sodium] | > 50 µM |
| OC(Cn1cncn1)(Cn1cncn1)c1ccc(F)cc1F [Fluconazole] | > 90 µM |
| FC(F)(F)c1cccc(C2=CCN(CCc3ccc4ccncc4c3)CC2)c1 [SSR150106] | 76.9 µM |
| CN/C(=C\[N+](=O)[O-])NCCSCc1ccc(CN(C)C)o1 [Ranitidine] | > 90 µM |
| COC(=O)[C@@H]1CC2=CC(=O)CC[C@]2(C)[C@@]23O[C@@H]2C[C@@]2(C)[C@@H](CC[C@@]24CCC(=O)O4)[C@H]13 [Eplerenone] | > 50 µM |

same assay, conditions: rat, gh3-tre-luc cells, AC50 (uM) modified / 1000, Tox21_110001=Tox21_110445; viability, 1 nM T3 present, 24 h

| SMILES | CC50 at 24 h |
| --- | --- |
| CC1=C2[C@H]3OC(=O)[C@@H](C)[C@@H]3CC[C@@]2(C)C=CC1=O [alpha-Santonin] | > 50 µM |

same assay, conditions: rat, gh3-tre-luc cells, AC50 (uM) modified / 1000, Tox21_110001=Tox21_200830; viability, 1 nM T3 present, 24 h

| SMILES | CC50 at 24 h |
| --- | --- |
| CC(=O)Nc1ccc2c(c1)Cc1ccccc1-2 [2-Acetylaminofluorene] | > 90 µM |

same assay, conditions: rat, gh3-tre-luc cells, AC50 (uM) modified / 1000, Tox21_110001=Tox21_200868; viability, 1 nM T3 present, 24 h

| SMILES | CC50 at 24 h |
| --- | --- |
| CC(C)[C@]12CC(=O)[C@H](C)[C@H]1C2 [alpha-Thujone] | > 90 µM |

same assay, conditions: rat, gh3-tre-luc cells, AC50 (uM) modified / 1000, Tox21_110001=Tox21_202941; viability, 1 nM T3 present, 24 h

| SMILES | CC50 at 24 h |
| --- | --- |
| O=C(CBr)c1ccccc1 [2-Bromoacetophenone] | > 90 µM |

same assay, conditions: rat, gh3-tre-luc cells, AC50 (uM) modified / 1000, Tox21_110001=Tox21_300253; viability, 1 nM T3 present, 24 h

| SMILES | CC50 at 24 h |
| --- | --- |
| O=C(NC(=O)c1cc(F)c(F)cc1Cl)Nc1cc(F)ccc1N1CCC(C(=O)O)CC1 [AVE2865] | > 50 µM |

same assay, conditions: rat, gh3-tre-luc cells, AC50 (uM) modified / 1000, Tox21_110001=Tox21_301414; viability, 1 nM T3 present, 24 h

| SMILES | CC50 at 24 h |
| --- | --- |
| CCC(C)(C#N)N=NC(C)(C#N)CC (stereo not shown) [2,2'-Azobis(2-methylbutanenitrile)] | > 90 µM |

same assay, conditions: rat, gh3-tre-luc cells, AC50 (uM) modified / 1000, Tox21_110001=Tox21_400029; viability, 1 nM T3 present, 24 h

| SMILES | CC50 at 24 h |
| --- | --- |
| ClC1=C(Cl)[C@]2(Cl)[C@@H]3[C@@H]4C[C@@H]([C@H]5O[C@@H]45)[C@@H]3[C@@]1(Cl)C2(Cl)Cl [Dieldrin] | 75.8 µM |
